Here are results for 3 substances from US20240066051A1 (priority 2022, published 2024).

Assay [1] has as its target SARS-CoV-2 S-protein RBD E484Q (Severe acute respiratory syndrome coronavirus 2, UniProt P0DTC2, E484Q). The assay is classed as binding.
The target in assay [2] is SARS-CoV-2 S-protein RBD L452R + T478K (Severe acute respiratory syndrome coronavirus 2, UniProt P0DTC2, L452R/T478K). The assay is classed as binding.
Assay [3] deals with SARS-CoV-2 S-protein RBD T478K (Severe acute respiratory syndrome coronavirus 2, UniProt P0DTC2, T478K). The assay is classed as binding.
Assay [4] concerns the target SARS-CoV-2 S-protein RBD L452R (Severe acute respiratory syndrome coronavirus 2, UniProt P0DTC2, L452R). The assay is classed as binding.
Assay [5] addresses SARS-CoV-2 S-protein RBD N501Y (Severe acute respiratory syndrome coronavirus 2, UniProt P0DTC2, N501Y). The assay is classed as binding.
The test system of assay [6] is S-protein RBD mutants (VOC). The assay is classed as binding, SARS-CoV-2.
Assay [7] relates to SARS-CoV-2 pseudotyped viral particles (Delta variant). The assay is classed as binding.
Assay [8] has the same test system. The assay is classed as cell-based.
The target in assay [9] is S-protein RBD L452R+T478K mutant (Severe acute respiratory syndrome coronavirus 2, UniProt P0DTC2, L452R/T478K).

With heparin, the ka in [1] is 5.2 × 10^4 1/MS; in assay [2], 2.3 × 10^4 1/MS; in [3] it was 1.2 × 10^4 1/MS; in [4], 161 1/MS; in assay [5] it was 1.7 × 10^4 1/MS. Also, the kd is 0.011 1/S in assay [1]; 0.014 1/S in [2]; 6.0 × 10^−3 1/S in [3]; 1.3 × 10^−3 1/S in [4]; 4.2 × 10^−4 1/S in [5]. Moreover, the “affinity to heparin compared with the WT RBD” value is on record as “lower affinity” in assay [4] and “higher affinity” in assay [5].

With mucopolysaccharide polysulfate [MPS], the figures for the “inhibition of S-protein RBD mutant-heparin interaction compared with heparin” value in assay [6] and in [9] were “stronger inhibition” and “comparable inhibition to heparin”, respectively. Further, the “inhibition of pseudotyped viral particle binding to heparin surface compared with heparin control” value in assay [7] was “stronger inhibition”. Moreover, the “IC50 for viral inhibition” value in assay [8] came to 0.28 µg/mL.

In the case of pentosan polysulfate [PPS], the “inhibition of S-protein RBD mutant-heparin interaction compared with heparin” value is “stronger inhibition” in [6] and “comparable inhibition to heparin” in assay [9]. Moreover, in [7], the “inhibition of pseudotyped viral particle binding to heparin surface compared with heparin control” value was “stronger inhibition”. In addition, the “IC50 for viral inhibition” value in assay [8] worked out at 0.07 µg/mL.
